Measurements from ChEMBL document CHEMBL1275369, “Structural insights into the hot spot amino acid residues of mushroom tyrosinase for the bindings of thujaplicins” (Bioorg Med Chem, 2010).

T1: Tyrosinase (Agaricus bisporus, UniProt O42713)
T1 sequence (O42713 whole entry): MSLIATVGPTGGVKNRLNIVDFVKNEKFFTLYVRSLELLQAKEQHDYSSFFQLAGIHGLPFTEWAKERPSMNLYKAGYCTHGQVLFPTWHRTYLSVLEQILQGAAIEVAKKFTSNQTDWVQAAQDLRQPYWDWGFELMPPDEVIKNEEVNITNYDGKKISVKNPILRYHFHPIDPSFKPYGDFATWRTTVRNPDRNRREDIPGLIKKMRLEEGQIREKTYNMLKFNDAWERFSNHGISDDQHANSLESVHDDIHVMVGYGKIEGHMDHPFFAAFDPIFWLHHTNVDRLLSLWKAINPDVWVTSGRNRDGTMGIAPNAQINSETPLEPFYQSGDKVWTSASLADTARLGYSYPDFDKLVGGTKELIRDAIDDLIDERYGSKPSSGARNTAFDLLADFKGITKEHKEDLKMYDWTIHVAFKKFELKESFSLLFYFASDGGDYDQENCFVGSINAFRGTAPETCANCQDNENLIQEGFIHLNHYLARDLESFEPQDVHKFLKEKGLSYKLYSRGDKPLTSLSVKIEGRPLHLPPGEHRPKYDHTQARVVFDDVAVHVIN


Assays:
Tyrosinase [1] = biological target: T1, Tyrosinase; assay: Inhibition of mushroom tyrosinase after 15 mins
Tyrosinase [2] = biological target: T1, Tyrosinase; assay: Competitive inhibition of mushroom tyrosinase after 15 mins by Lineweaver-Burke plot analysis
[3] = substrate: CC(C)c1ccccc(=O)c1O; conditions: Agaricus bisporus; 3 uM
Description: Inhibition of mushroom tyrosinase at 3 uM after 15 mins by Michaelis-Menten constant analysis

[4] = substrate: CC(C)c1ccccc(=O)c1O; conditions: Agaricus bisporus; 6 uM
Description: Inhibition of mushroom tyrosinase at 6 uM after 15 mins by Michaelis-Menten constant analysis

[5] = substrate: CC(C)c1cccc(=O)c(O)c1; conditions: Agaricus bisporus; 0.05 uM
Description: Inhibition of mushroom tyrosinase at 0.05 uM after 15 mins by Michaelis-Menten constant analysis

[6] = substrate: CC(C)c1cccc(=O)c(O)c1; conditions: Agaricus bisporus; 0.20 uM
Description: Inhibition of mushroom tyrosinase at 0.20 uM after 15 mins by Michaelis-Menten constant analysis

[7] = substrate: CC(C)c1ccc(O)c(=O)cc1; conditions: Agaricus bisporus; 0.02 uM
Description: Inhibition of mushroom tyrosinase at 0.02 uM after 15 mins by Michaelis-Menten constant analysis

[8] = substrate: CC(C)c1ccc(O)c(=O)cc1; conditions: Agaricus bisporus; 0.06 uM
Description: Inhibition of mushroom tyrosinase at 0.06 uM after 15 mins by Michaelis-Menten constant analysis

Row | Molecule | IC50 (Tyrosinase [1]) [nM] | Ki (Tyrosinase [2]) [nM] | Km [3] [µM] | Km [4] [µM] | Km [5] [µM] | Km [6] [µM] | Km [7] [µM] | Km [8] [µM]
1 | CC(C)c1ccccc(=O)c1O [ALPHA-THUJAPLICIN] | 9530 | 3300 | – | – | – | – | – | –
2 | CC(C)c1ccc(O)c(=O)cc1 [GAMMA-THUJAPLICIN] | 70 | 20 | – | – | – | – | – | –
3 | CC(C)c1cccc(=O)c(O)c1 [HINOKITIOL] | 90 | 60 | – | – | – | – | – | –
4 | Tyrosinase (Agaricus bisporus), O42713 (protein) MSLIATVGPTGGVKNRLNIVDFVKNEKFFTLYVRSLELLQAKEQHDYSSFFQLAGIHGLPFTEWAKERPSMNLYKAGYCTHGQVLFPTWHRTYLSVLEQILQGAAIEVAKKFTSNQTDWVQAAQDLRQPYWDWGFELMPPDEVIKNEEVNITNYDGKKISVKNPILRYHFHPIDPSFKPYGDFATWRTTVRNPDRNRREDIPGLIKKMRLEEGQIREKTYNMLKFNDAWERFSNHGISDDQHANSLESVHDDIHVMVGYGKIEGHMDHPFFAAFDPIFWLHHTNVDRLLSLWKAINPDVWVTSGRNRDGTMGIAPNAQINSETPLEPFYQSGDKVWTSASLADTARLGYSYPDFDKLVGGTKELIRDAIDDLIDERYGSKPSSGARNTAFDLLADFKGITKEHKEDLKMYDWTIHVAFKKFELKESFSLLFYFASDGGDYDQENCFVGSINAFRGTAPETCANCQDNENLIQEGFIHLNHYLARDLESFEPQDVHKFLKEKGLSYKLYSRGDKPLTSLSVKIEGRPLHLPPGEHRPKYDHTQARVVFDDVAVHVIN | – | – | 380 | 380 | 530 | 1160 | 530 | 950
